The results in this text go back to patent publication US20240325548A1, “DYNAMIC BIOACTIVE SCAFFOLDS AND THERAPEUTIC USES THEREOF AFTER CNS INJURY” (Northwestern University, priority 2021, published 2024).

Data set [1] can be described thus: Miscibility and hydrogel formation of IKVAV PA / FGF2 PA binary systems (cryo-TEM, rheology). Type of data set: physicochemical. The following applies: particularly at molar ratio 90:10. As for the experimental part: For in vitro experiments: After lyophilization, PA powder was reconstituted in 150 mM NaCl and 3 mM KCl solution and adjusted to a pH of 7.4 using 1 μL additions of 1 M NaOH to ensure cell compatibility and material consistency. Different bioactive PAs were mixed at different mol % (see Table 3) and horn sonicated at 10% intensity, three times for 10 seconds. PA solutions were annealed at 80° C. for 30 min and then slowly cooled at 1° C. per minute to reach a final temperature of 27° C. using a thermocycler (Eppendorf PCR Thermocycler) for even and controlled heating and cooling of all samples. To prepare a PA coated substrate, 24-, 12-, or 6-well polystyrene cell culture plate or 12 mm and 18 mm glass coverslips (German Glass, Chemglass Life Science) were coated with poly-D-lysine (0.01 mg/mL, Sigma-Aldrich) for 3 h at 37° C. The plates were then rinsed with MilliQ water three times and allowed to dry for 4 h. PAs were painted on the coverslips or tissue culture plates by dragging a pipette (8-30 μL of annealed PAs (1 wt %)) to extrude a thin, even coating of material across the surface. PA coatings were incubated for 3 h at room temperature. The plates were gently rinsed with media before further use. For dye-labeled PAs experiments, Cy3-labeled-FGF2 PAs were co-assembled at 1 mol % with their corresponding non-labeled PA counterparts (see table 3).
Plunge-freezing for Cryo-TEM samples were prepared using a FEI model Vitrobot MarkIV (FEI). 7 μL of the sample solution ([PA]=0.05-0.1 wt % in H2O) was deposited on a plasma-cleaned TEM grid (300 mesh copper with lacey carbon, Electron Microscopy Sciences) and held in place with tweezers mounted on the Vitrobot. The specimen was blotted in an environment with 100% humidity at room temperature (blot force: 3, blot total: 1-2, wait time: 0.5-1 s, blot time: 3 s, drain time: 0-1 s), and plunged into a liquid ethane reservoir cooled by liquid nitrogen. The vitrified samples were stored in liquid nitrogen and then transferred to a Gatan 626 Cryo-TEM holder. Cryo-TEM images were obtained using a JEOL1230 electron microscope operating with a LaB6 filament at an accelerating voltage of 100 kV, equipped with a Gatan 831 CCD camera.
PA materials were prepared using the method described above for in vitro studies. An MCR302 Rheometer (Anton Paar) was used for all rheological studies. The instrument stage was set to 37° C. to simulate in vitro and in vivo conditions. The PA solution (150 μL) was placed on the sample stage and 30 μL of 25 mM CaCl2) solution was pipetted onto the underside of a 25 mm cone plate positioned above the material. […] The storage and loss modulus (G′ and G″) were recorded after a plateau occurred.

The subject of data set [2] is murine model of severe spinal cord injury (SCI). Kind of data set: Corticospinal tract (CST) axon regrowth after SCI (BDA tracing). Type of data set: in vivo, mouse. The following applies: 12 weeks after injury, BDA-labeled axons. How it is done:
All experiments were conducted at the Simpson Querrey Institute at Northwestern University. 182 CD1 mice (Charles River) were subjects of this study (N=38 Sham, N=38 IKVAV PA2 alone, N=38 IKVAV PA2+FGF2 PA1, N=38 IKVAV PA2+FGF2 PA2, N=12 IKVAV PA1, N=12 Backbone PA, N=6 IKVAV PA4). The age of animals used in the study was in the range of 10-16 weeks. 8 independent in vivo experiments were carried out (injury+PA injection) and each of the 8 experiments had animals of the exact same age which were injected with at least the 4 main treatment groups: Sham, IKVAV PA2 alone, IKVAV PA2+FGF2 PA1, and IKVAV PA2+FGF2 PA2. Animals were anesthetized using 2.5% isoflurane gas with oxygen. A laminectomy was performed to expose the spinal cord at the T10-T11 spinal level. A severe contusive injury was performed using the Infinite Horizon Spinal Cord Impactor system (IH-0400 Precision Systems and Instrumentation) with 85 kdyn of impact force and a dwell time of 60 s. After the lesion, the skin was sutured using 9 mm wound clips (BD Biosciences) and the animals were recovered on a heating pad to maintain body temperature. Bladders were manually expressed daily during the entire 12 weeks of the experiment.
PAs (dissolved in sterile NaCl 0.9% solution at 1 wt %) were injected 24 h after SCI using a glass capillary micropipette (Sutter Instruments, Novato, CA) (outer diameter, 100 m) coated with Sigmacote (Sigma-Aldrich) to reduce surface tension as described elsewhere (19). The capillaries were loaded onto a Hamilton syringe using a female Luer adaptor (World Precision Instruments) controlled by a Micro4 microsyringe pump controller (World Precision Instruments). Under isoflurane anesthesia, autoclips were removed and the injury site was exposed. At 24 h post injury, the laminectomy in the spinal column was still intact and the bruise created by the lesion was visible. A stereotaxic Kopf apparatus was used to position the micropipette just dorsal to the lesion. The micropipette was lowered to a depth of 750 m measured from the dorsal surface of the cord, and 4-6 μL of the diluted amphiphile solution was injected at 1 L/min. […]
Axons labeled using BDA (Thermofisher, N7167) or stained with 5HT (Abcam) were quantified using Imaris® software version 9.3 as previously described (21). Lines were drawn across longitudinal spinal cord sections from the proximal border (PB) to the distal border (DB) of the SCI lesion at consistent distances and the number of axons intercepting the lines drawn was counted by researchers that were blinded to the experimental conditions. Multiple sections through the middle of the cord, where BDA or 5HT staining was denser, were counted per mouse and expressed as total intercepts per location, per animal. […]

In the case of C16-VAG2E4GIKVAV [IKVAV PA4], the “miscibility and hydrogel formation when mixed with FGF2 PA1 or FGF2 PA2” value (“miscibility and hydrogel formation” below) in data set [1] is reported as “immiscibility”. In addition, the “CST axon regrowth within the lesion” value in data set [2] was “intermediate level of axon regrowth”.
The matching figures for C16-V2A2E4GIKVAV [IKVAV PA1]: “immiscibility” and “some regrowth of axons”.
Regarding C16-A2G2E4GIKVAV [IKVAV PA2], the “miscibility and hydrogel formation” value in data set [1] is “both miscible and could form hydrogels with similar mechanical properties”. For the same substance, the “CST axon regrowth within the lesion” value in data set [2] is “modest, but increased axon regrowth”.
As for C16-G4E4GIKVAV [IKVAV PA5], the “miscibility and hydrogel formation” value in data set [1] is reported as “immiscibility”.
